20 molecules from US8354414B2, “Substituted bicyclic pyrimidines” (Cephalon, Inc, priority 2006, dated 2013) can be followed below.

One may read the IC50 as the midpoint of a concentration-inhibition curve. What is called melting point is the temperature, or range, at which the solid turns liquid. The inhibition is the percentage by which the read-out fell short of the control. A low value points to little suppression.

In data set [1] the target is T1, CDK5/GST-p25 (Homo sapiens, UniProt Q00535).
T1 construct: The final construct, encoding for full-length human CDK5; made in house; host or cells: Sf21 insect cells (baculovirus co-infection)
The data set is described as follows: Inhibition of CDK5/GST-p25 kinase activity (ELISA with time-resolved fluorescence readout). In kind it is biochemical. Particulars: for IC50: class symbols. An outline of the steps: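 The substrate, GST-Rb(773-928), was immobilised on plates and phosphorylated for 20 min at 37 °C by 2 ng/ml CDK5/GST-p25 in HEPES pH 7.2 with 10 µM ATP and 10 mM MgCl2. Both proteins were human and co-expressed in insect cells. Ser-780 phosphorylation was read by europium time-resolved fluorescence and converted to IC50.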

Data set [2] addresses T2, His6-GSK-3β (Homo sapiens, UniProt P49841).
T2 construct: made in house; host or cells: Sf21 insect cells (baculovirus)
The data set is described as follows: Inhibition of His6-GSK-3β kinase activity (ELISA-based format, time-resolved fluorescence readout). It counts as biochemical. The conditions noted are these: read-out: GSK3β IC50. The gist of the method: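 Plate-bound recombinant GST-Rb substrate was phosphorylated for 30 min at 37° C by baculovirus-expressed His6-GSK-3β (200 ng/ml) at 20 μM ATP, 10 mM MgCl2, 2.5% DMSO. Europium time-resolved fluorescence of anti-phospho-Ser780 Rb signal gave inhibition, fitted to IC50.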
For orientation: ELISA stands for enzyme-linked immunosorbent assay.

Read-outs that look alike come from different tables or passages of the source.

T1 sequence (Q00535 whole entry): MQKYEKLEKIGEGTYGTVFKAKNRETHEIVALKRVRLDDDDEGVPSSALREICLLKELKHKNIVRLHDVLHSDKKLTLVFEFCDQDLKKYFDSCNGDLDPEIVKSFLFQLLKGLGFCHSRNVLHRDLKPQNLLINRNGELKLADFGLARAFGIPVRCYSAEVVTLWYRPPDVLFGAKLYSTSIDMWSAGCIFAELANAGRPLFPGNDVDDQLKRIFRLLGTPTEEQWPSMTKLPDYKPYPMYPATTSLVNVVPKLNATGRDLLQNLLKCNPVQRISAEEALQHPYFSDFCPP
T1 sequence (Q15078 108-307 partner limits assumed): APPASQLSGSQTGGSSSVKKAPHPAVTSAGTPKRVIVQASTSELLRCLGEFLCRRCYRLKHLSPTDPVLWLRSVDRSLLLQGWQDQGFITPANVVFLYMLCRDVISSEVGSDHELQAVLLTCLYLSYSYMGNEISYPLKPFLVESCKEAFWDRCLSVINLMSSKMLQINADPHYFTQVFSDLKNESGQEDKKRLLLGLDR
T2 sequence (P49841 2-419): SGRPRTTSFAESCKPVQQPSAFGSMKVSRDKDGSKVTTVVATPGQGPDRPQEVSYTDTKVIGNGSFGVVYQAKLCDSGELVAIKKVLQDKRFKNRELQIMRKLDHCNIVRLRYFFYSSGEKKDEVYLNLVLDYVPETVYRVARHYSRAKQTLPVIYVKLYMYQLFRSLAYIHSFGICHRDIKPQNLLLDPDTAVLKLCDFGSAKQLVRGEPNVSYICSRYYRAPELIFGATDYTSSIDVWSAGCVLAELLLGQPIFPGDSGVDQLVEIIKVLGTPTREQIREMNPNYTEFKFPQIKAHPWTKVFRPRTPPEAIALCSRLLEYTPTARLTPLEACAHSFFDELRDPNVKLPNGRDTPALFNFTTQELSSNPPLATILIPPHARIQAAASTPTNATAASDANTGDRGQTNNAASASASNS

Molecule `CCCn1cc2c(C3C(=O)Nc4ccc(Br)cc43)nc(NCCCN)nc2n1` (stereo not drawn) [Example 199, 3-[6-(3-Amino-propylamino)-2-propyl-2H-pyrazolo [3,4-d]pyrimidin-4-yl]-5-bromo-1,3-dihydro-indol-2-one] showed a melting point of more than 300 °C. This molecule also registered a 50% inhibitory concentration (IC50) in data set [1] of less than 300 nM. In data set [2] (class symbols), the IC50 was less than 300 nM.
The molecule `CNc1nc(C2C(=O)Nc3ccccc32)c2cn(C3CCCC3)nc2n1` (stereo not drawn) [Example 154, 3-(2-cyclopentyl-6-methylamino-2H-pyrazolo [3,4-d]pyrimidin-4-yl)-1,3-dihydro-indol-2-one] yielded a melting point of more than 300 °C. In data set [1], this molecule yielded an inhibition at 10 µM of 68%. Moreover, the 50% inhibitory concentration (IC50) in data set [2] (class symbols) lay in the range of 300 to 3000 nM.
The molecule `Cn1cc2c(C3C(=O)Nc4ccc(Br)cc43)ncnc2n1` (stereo not drawn) [Example 82, 5-Bromo-3-(2-methyl-2H-pyrazolo[3,4-d]pyrimidin-4-yl)-1,3-dihydro-indol-2-one] returned a melting point of 360 to 365 °C. Besides, the half-inhibitory concentration (IC50) in data set [1] was less than 300 nM. In addition, the 50% inhibitory concentration (IC50) in data set [2] (class symbols) lay within 300 to 3000 nM.
Taken in the same sequence, the figures for `O=C1Nc2cc(F)ccc2C1c1ncnc2nn(C3CCCC3)cc12` (stereo not drawn) [Example 41, 3-(2-Cyclopentyl-2H-pyrazolo[3,4-d]pyrimidin-4-yl)-6-fluoro-1,3-dihydro-indol-2-one] were 258 to 263 °C, 300 to 3000 nM and 300 to 3000 nM.
Taken in the same sequence, the figures for `CC(C)Cn1cc2c(C3C(=O)Nc4ccc(Cl)cc43)nc(NCCN(C)C)nc2n1` (stereo not drawn) [Example 270, 5-Chloro-3-[6-(2-dimethylamino-ethylamino)-2-isobutyl-2H-pyrazolo[3,4-d]pyrimidin-4-yl]-1,3-dihydro-indol-2-one] were 264 to 265.5 °C, 300 to 3000 nM and less than 300 nM.
Taken in the same sequence, the figures for `O=C1Nc2ccccc2C1c1nc(NCc2cccnc2)nc2nn(C3CCCC3)cc12` (stereo not drawn) [Example 156, 3-{2-cyclopentyl-6-[(pyridin-3-ylmethyl)-amino]-2H-pyrazolo [3,4-d]pyrimidin-4-yl}-1,3-dihydro-indol-2-one] were 216 to 218 °C, less than 300 nM and less than 300 nM.
`COCCNc1nc(C2C(=O)Nc3ccc(Cl)cc32)c2cn(C3CCCC3)nc2n1` (stereo not drawn) [Example 277, 5-Chloro-3-[2-cyclopentyl-6-(2-methyoxy-ethylamino)-2H-pyrazolo[3,4-d]pyrimidin-4-yl]-1,3-dihydro-indol-2-one] showed a melting point of 249 to 259 °C. The IC50 in data set [1] is less than 300 nM. Further, the half-inhibitory concentration (IC50) in data set [2] (class symbols) is less than 300 nM.
The molecule `N#Cc1ccc2c(c1)C(c1ncnc3c1cnn3C1CCCCC1)C(=O)N2` (stereo not drawn) [Example 68, 3-(1-Cyclohexyl-1H-pyrazolo [3,4-de]pyrimidin-4-yl)-2-oxo-2,3-dihydro-1H-indole-5-carbonitrile] showed a melting point of more than 300 °C. Besides, the IC50 in data set [1] is more than 10000 nM. Besides, in data set [2] (class symbols), the IC50 was more than 10000 nM.
In the case of `CCNc1nc(C2C(=O)Nc3ccc(C#N)cc32)c2cn(C3CCCC3)nc2n1` (stereo not drawn) [Example 166, 3-(2-cyclopentyl-6-ethylamino-2H-pyrazolo[3,4-d]pyrimidin-4-yl)-2-oxo-2,3-dihydro-1H-indole-5-carbonitrile], the melting point is 373 °C (dec.). The inhibition at 10 µM in data set [1] turned out to be 41%. Also, the IC50 in data set [2] (class symbols) was less than 300 nM.
Molecule `O=C1Nc2ccc(C(F)(F)F)cc2C1c1nc(Cl)nc2nn(C3CCCC3)cc12` (stereo not drawn) [Example 153, 3-(6-Chloro-2-cyclopentyl-2H-pyrazolo [3,4-d]pyrimidin-4-yl)-5-trifluoromethyl-1,3-dihydro-indol-2-one] had a melting point of more than 300 °C. In data set [1], this molecule gave a half-maximal inhibitory concentration (IC50) of more than 10000 nM. Moreover, in data set [2] (numeric bounds), the half-maximal inhibitory concentration (IC50) was more than 3000 nM.
In turn, `O=C1Nc2ccc(Cl)cc2C1c1ncnc2c1cnn2C1CCCCC1` (stereo not drawn) [Example 74, 5-Chloro-3-(1-Cyclohexyl-1H-pyrazolo[3,4-d]pyrimidin-4-yl)-1,3-dihydro-indol-2-one] came in with a melting point of 300 to 305 °C. Also, the 50% inhibitory concentration (IC50) in data set [1] is more than 10000 nM. For the same molecule, the IC50 in data set [2] (class symbols) is more than 10000 nM.
Molecule `CCOCCn1cc2c(C3C(=O)Nc4ccc(Br)cc43)nc(NC[C@@H](C)O)nc2n1` (stereo partly drawn) [Example 239, 5-Bromo-3-[2-(2-ethoxy-ethyl)-6-((R)-2-hydroxy-propylamino)-2H-pyrazolo[3,4-d]pyrimidin-4-yl]-1,3-dihydro-indol-2-one] came in with a melting point of 298 to 300 °C. Further, the IC50 in data set [1] is less than 300 nM. Besides, the IC50 in data set [2] (class symbols) was less than 300 nM.
On to `O=c1[nH]c2ccccc2n1-c1ncnc2nn(C3CCCC3)cc12` [Example 44, 1-(2-Cyclopentyl-2H-pyrazolo[3,4-d]pyrimidin-4-yl)-1,3-dihydro-benzoimidazol-2-one], for which the melting point lay in the range of 236 to 240 °C. The IC50 in data set [1] was more than 10000 nM. Besides, in data set [2] (class symbols), the half-inhibitory concentration (IC50) is more than 10000 nM.
`O=C1Nc2ccc(C(F)(F)F)cc2C1c1ncnc2nn(C3CCCCC3)cc12` (stereo not drawn) [Example 53, 3-(2-Cyclohexyl-2H-pyrazolo [3,4-d]pyrimidin-4-yl)-5-trifluoromethyl-1,3-dihydro-indol-2-one] registered a melting point of more than 300 °C. The IC50 in data set [1] was more than 10000 nM. Also, in data set [2] (class symbols), the IC50 lay within 300 to 3000 nM.
The like results for `O=C1Nc2ccccc2C1c1nc(Cl)nc2nn(C3CCCC3)cc12` (stereo not drawn) [Example 152, 3-(6-Chloro-2-cyclopentyl-2H-pyrazolo[3,4-d]pyrimidin-4-yl)-1,3-dihydro-indol-2-one] were, in that order, 270 to 273 °C, more than 10000 nM and more than 10000 nM.
Taken in the same sequence, the figures for `CC(C)n1cc2c(C3C(=O)Nc4ccc(Cl)cc43)ncnc2n1` (stereo not drawn) [Example 381, 5-Chloro-3-(2-isopropyl-2H-pyrazolo[3,4-d]pyrimidin-4-yl)-1,3-dihydro-indol-2-one] were more than 300 °C, less than 300 nM and 300 to 3000 nM.
Consider `COCCn1cc2c(C3C(=O)Nc4ccc(Br)cc43)nc(NCCCN(C)C)nc2n1` (stereo not drawn) [Example 233, 5-Bromo-3-[6-(3-dimethylamino-propylamino)-2-(2-methoxy-ethyl)-2H-pyrazolo [3,4-d]pyrimidin-4-yl]-1,3-dihydro-indol-2-one], for which the melting point is 297 to 298 °C. In data set [1], this molecule registered an IC50 of less than 300 nM. Further, the 50% inhibitory concentration (IC50) in data set [2] (class symbols) was less than 300 nM.
Regarding `COCCNc1nc(C2C(=O)Nc3ccc(Br)cc32)c2cn(CC(C)C)nc2n1` (stereo not drawn) [Example 263, 5-Bromo-3-[2-isobutyl-6-(2-methoxy-ethylamino)-2H-pyrazolo[3,4-d]pyrimidin-4-yl]-1,3-dihydro-indol-2-one], the melting point lay in the range of 294 to 296.8 °C. Moreover, the IC50 in data set [1] was less than 300 nM. Also, the concentration for half-maximal inhibition (IC50) in data set [2] (class symbols) is less than 300 nM.
`CCOCCn1cc2c(C3C(=O)Nc4ccc(Br)cc43)nc(NCCN3CCOCC3)nc2n1` (stereo not drawn) [Example 240, 5-Bromo-3-[2-(2-ethoxy-ethyl)-6-(2-morpholin-4-yl-ethylamino)-2H-pyrazolo [3,4-d]pyrimidin-4-yl]-1,3-dihydro-indol-2-one]: the melting point lay in the range of 276 to 278 °C. Further, the IC50 in data set [1] is less than 300 nM. For the same molecule, the IC50 in data set [2] (class symbols) is less than 300 nM.
Consider `CNc1nc(C2C(=O)Nc3ccc(C(F)(F)F)cc32)c2cn(C3CCCC3)nc2n1` (stereo not drawn) [Example 159, 3(-2-cyclopentyl-6-methylamino-2H-pyrazolo[3,4-d]pyrimidin-4-yl)-5-trifluoromethyl-1,3-dihydro-indol-2-one], for which the melting point was more than 300 °C. In data set [1], the 50% inhibitory concentration (IC50) is more than 10000 nM. In data set [2] (class symbols), the IC50 is more than 10000 nM.
